Earlier results as cited in publication PMC7700871 (ACS chemical biology, 2020).

Molecular target: Abl-1 (Homo sapiens, UniProt P00519)
Conditions: cited from earlier work

Chain of Abl-1 (P00519 whole entry, species assumed): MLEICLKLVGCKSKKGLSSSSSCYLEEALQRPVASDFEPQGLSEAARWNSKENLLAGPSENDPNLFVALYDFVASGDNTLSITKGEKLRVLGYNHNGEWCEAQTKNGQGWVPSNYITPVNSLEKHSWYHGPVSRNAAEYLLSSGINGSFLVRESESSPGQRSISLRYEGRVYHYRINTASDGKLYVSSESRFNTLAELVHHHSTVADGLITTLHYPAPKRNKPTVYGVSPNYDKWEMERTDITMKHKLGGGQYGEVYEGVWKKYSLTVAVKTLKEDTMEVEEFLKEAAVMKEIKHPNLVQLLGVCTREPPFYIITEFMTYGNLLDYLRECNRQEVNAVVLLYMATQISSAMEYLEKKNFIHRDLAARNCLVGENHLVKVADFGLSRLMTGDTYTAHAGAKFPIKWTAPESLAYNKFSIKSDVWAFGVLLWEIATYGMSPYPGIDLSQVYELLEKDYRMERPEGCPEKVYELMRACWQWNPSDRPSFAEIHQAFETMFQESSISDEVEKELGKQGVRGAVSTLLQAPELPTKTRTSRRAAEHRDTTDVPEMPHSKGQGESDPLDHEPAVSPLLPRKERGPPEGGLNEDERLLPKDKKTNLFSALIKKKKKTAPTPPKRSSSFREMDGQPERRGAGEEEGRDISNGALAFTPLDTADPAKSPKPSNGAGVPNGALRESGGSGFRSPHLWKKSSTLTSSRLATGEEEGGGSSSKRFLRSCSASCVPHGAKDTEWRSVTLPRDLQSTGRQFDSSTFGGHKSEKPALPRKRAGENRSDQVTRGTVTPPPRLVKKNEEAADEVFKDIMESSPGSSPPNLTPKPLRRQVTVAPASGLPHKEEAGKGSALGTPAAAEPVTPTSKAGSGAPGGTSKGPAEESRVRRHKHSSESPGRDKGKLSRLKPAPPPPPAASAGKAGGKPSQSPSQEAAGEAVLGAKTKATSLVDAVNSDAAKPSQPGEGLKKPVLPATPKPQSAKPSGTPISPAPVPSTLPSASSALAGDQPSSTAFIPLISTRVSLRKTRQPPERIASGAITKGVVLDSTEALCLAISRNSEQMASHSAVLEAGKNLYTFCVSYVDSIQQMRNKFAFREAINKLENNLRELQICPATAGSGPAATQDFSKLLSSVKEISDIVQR

Q: With Cc1ccc(NC(=O)c2ccc(CN3CC[C@H](N(C)C)C3)c(C(F)(F)F)c2)cc1Nc1nccc(-c2cncnc2)n1 [bafetinib] as the compound, how does the “global conformation of Abl-1's SH3-SH2-CD module” value read?
A: promote an open global conformation
